Experimental data taken from PMC7399337, “Biological Properties and Absolute Configuration of Flavanones From Calceolaria thyrsiflora Graham” (Frontiers in Pharmacology, 2020).

What was measured:
[1] = test system: MEF primary mouse embryonic fibroblast; experiment: In vitro cytotoxic activity, CyQuant cell viability, 72 h; type: cell-based; details: MEF (non-cancerous cells); 72 h
Experimental: The used cell lines include MDA-MB-231 human breast adenocarcinoma cells, B16-F10 mouse metastatic melanoma cells and MEF primary mouse embryonic fibroblast. Cells were maintained in a DMEM high glucose medium (Mediatech, Manassas, VA, USA) supplemented with 10% (MDA-MB-231 and B16-F10) or 15% (MEF) heat-inactivated fetal bovine serum (HyClone Laboratories, South Logan, USA), 100 IU ml^-1 penicillin and 100 μg ml^-1 streptomycin while maintained at 37°C in a 5% CO2 humidified atmosphere. Cell viability was measured using a CyQuant® Direct Cell Proliferation Assay Kit (Life Technologies, Grand Island, NY, USA) following the manufacturer’s instruction. Briefly, 5,000 cells per well were seeded onto a flat-bottom 96-well plate in 200 μL final volume. Six hours after seeding, the culture medium was replaced by the medium containing the tested compounds at 0.01 to 100 µM concentrations in DMSO (0.1% final concentration) during 72 h. Untreated cells (medium containing only 0.1% DMSO) were used as controls. At the end of the incubation, 100 μL of culture medium was removed from each well and replaced by detection reagent solution provided by the kit (which is a 1:5 mixture of the reagent CyQUANT®, direct nucleic acid stain and the reagent labeled as CyQUANT® direct background suppressor I). Cells were incubated for 1 h and fluorescence emission was measured at 535 nm with excitation at 480 nm in a microplate reader (Infinite 200 PRO, Tecan, Grödig, Austria). At least four independent experiments were performed for each concentration. The results from each experiment were transformed into percentage of controls and the LC50 values were graphically obtained from the dose-response curves. The LC50 value was obtained adjusting the dose-response curve to sigmoidal curves (variable slope) using the GraphPad Prisma 6.0 software ([GraphPad-Software, 2015]).

15-sLOX = target: T1, 15-sLOX (Glycine max, UniProt P08170); experiment: In vitro 15-sLOX enzyme assay (absorbance at 234 nm); type: biochemical; details: Flavanones at 10 µM (table footnote); method: 5 µg/ml
T1 construct: purchased Cayman Chemical Item No. 60712
T1 sequence (P08170 1-839): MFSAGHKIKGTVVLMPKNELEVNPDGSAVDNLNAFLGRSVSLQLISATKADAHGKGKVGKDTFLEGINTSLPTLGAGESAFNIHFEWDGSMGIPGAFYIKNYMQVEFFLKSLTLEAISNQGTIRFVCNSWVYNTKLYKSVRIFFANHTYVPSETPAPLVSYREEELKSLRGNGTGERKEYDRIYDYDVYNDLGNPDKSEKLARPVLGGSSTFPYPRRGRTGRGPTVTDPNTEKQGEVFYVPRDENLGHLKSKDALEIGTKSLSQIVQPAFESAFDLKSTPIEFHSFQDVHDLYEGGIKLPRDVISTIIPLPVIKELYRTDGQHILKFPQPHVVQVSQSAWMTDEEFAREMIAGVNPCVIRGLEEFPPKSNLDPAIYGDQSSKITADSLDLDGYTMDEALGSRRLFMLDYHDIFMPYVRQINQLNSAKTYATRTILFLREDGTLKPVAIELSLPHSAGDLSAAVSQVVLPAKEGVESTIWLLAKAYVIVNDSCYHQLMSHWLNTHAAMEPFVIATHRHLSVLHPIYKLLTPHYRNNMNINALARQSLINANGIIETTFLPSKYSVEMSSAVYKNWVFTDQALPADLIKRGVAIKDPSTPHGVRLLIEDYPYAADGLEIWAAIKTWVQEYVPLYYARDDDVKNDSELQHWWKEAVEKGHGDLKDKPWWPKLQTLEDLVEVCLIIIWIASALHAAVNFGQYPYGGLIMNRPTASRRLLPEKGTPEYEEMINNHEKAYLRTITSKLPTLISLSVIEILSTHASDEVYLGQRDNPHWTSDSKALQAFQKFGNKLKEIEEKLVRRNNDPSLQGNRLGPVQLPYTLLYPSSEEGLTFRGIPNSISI
Experimental: The activity of 15-sLOX (Cayman Chemical Item No. 60712) was determined following the formation of reaction products at 234 nm (ϵ = 25,000 M^-1 cm^-1) in a Perkin-Elmer Lambda 25 UV/Vis spectrophotometer. All reactions were performed at a final volume of 2 ml and were constantly stirred using a magnetic bar at room temperature. The reaction medium used contained 25 mM HEPES buffer (pH 7.4), Triton X-100 0.01%, and the arachidonic acid (AA) substrate at a 10 µM concentration determine preliminary percent inhibition (%I). AA concentration was determined quantitatively by allowing the enzymatic reaction to go to completion. The reaction was carried out by adding the inhibitor dissolved in DMSO (5 µg/ml in the reaction medium) to the bucket with the substrate buffer, and finally the enzyme was added. Assays were performed in duplicate on three different days. GraphPad Prism Demo V.7 performed the graphics for IC50 and kinetics studies ([GraphPad-Software-Inc., 2017]).

5-hLOX = target: T2, 5-hLOX (Homo sapiens, UniProt P09917); experiment: In vitro 5-hLOX enzyme assay (H2DCFDA fluorescence); type: biochemical; details: kinetic assays, inhibitor 0–1 μM, substrate 0.2–5 μM
T2 construct: purchased Cayman Chemicals Inc. (Ann Arbor, MI, USA)
T2 sequence (P09917 1-674): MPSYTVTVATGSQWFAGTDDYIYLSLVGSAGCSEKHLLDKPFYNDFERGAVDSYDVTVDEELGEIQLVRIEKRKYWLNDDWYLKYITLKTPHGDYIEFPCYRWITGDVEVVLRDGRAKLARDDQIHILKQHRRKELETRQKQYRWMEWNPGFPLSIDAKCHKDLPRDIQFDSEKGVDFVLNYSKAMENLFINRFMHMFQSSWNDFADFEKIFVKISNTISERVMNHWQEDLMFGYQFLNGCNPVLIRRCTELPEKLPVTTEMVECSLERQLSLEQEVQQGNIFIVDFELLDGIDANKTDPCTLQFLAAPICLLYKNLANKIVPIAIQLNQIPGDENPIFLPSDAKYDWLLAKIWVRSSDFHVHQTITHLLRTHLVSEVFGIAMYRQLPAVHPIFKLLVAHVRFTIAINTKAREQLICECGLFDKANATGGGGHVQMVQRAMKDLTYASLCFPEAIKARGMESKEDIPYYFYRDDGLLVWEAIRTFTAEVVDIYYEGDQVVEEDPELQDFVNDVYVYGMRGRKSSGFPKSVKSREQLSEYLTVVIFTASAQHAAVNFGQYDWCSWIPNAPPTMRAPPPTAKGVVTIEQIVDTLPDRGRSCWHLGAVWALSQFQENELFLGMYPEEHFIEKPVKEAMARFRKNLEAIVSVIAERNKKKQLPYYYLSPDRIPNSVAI

Row | Ki (5-hLOX) | SMILES | LC50 ± SD [1] | inhibition at 10 µM (15-sLOX)
1 | – | COc1cc(O)c2c(c1)O[C@H](c1ccc(O)cc1)CC2=O [Compound 1, (-)-(2S)-5,4’-dihydroxy-7-methoxyflavanone] | no significant cytotoxic activity | 7 ± 3.12%
2 | 50 nM | COc1cc(O)c2c(c1)O[C@H](c1ccc(O)c(O)c1)CC2=O [Compound 2, (-)-(2S)-5,3’,4’-trihydroxy-7-methoxyflavanone] | – | 26 ± 3.96%
